This note sets out measurements from patent publication US5128244A, “Assay for dioxins” (Wisconsin Alumni Research Foundation, priority 1989, dated 1992).

Series [1] deals with T1, Ah receptor (Mus musculus, UniProt P30561).
T1 construct: full-length receptor (C57BL/6J carries Ahr b-1 allele)
T1 sequence (P30561 10-848): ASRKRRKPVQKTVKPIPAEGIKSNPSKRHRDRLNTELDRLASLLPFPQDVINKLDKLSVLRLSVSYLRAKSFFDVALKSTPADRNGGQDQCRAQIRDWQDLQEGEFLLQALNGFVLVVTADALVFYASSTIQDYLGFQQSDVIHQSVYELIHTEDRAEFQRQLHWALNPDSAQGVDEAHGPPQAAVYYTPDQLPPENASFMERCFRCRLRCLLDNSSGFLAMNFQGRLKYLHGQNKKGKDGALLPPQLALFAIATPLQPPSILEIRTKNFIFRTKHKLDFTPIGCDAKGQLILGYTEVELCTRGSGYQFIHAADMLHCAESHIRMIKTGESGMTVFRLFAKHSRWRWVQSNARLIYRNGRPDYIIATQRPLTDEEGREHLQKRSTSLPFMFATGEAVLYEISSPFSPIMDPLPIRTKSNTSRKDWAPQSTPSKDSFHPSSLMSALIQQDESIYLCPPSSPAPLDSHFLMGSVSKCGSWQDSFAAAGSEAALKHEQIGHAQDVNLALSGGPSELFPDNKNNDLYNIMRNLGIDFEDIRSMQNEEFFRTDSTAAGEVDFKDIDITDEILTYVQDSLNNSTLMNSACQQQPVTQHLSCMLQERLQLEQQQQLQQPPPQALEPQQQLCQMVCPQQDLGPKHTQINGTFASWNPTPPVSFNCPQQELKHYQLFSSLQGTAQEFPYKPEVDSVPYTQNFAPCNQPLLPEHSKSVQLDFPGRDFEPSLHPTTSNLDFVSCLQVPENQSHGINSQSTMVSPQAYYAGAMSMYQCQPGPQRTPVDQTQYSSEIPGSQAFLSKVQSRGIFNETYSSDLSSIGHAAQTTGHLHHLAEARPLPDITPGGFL
In words: Radioligand stock solution aged 120 days, tested in the Ah receptor binding assay. On the set-up: species or system C57BL/6J mice. The following applies: stock solution of radioligand 120 days after its synthesis. The text has this:
[^125 I]decays to tellurium with a half-life of 60 days. Thus, radiodecay could produce unlabelled 2,3-dibromodibenzo-p-dioxin in the radioligand stock solution. We tested whether radioligand decay products might compete for receptor binding and diminish radioligand binding.

Series [2] deals with T1, Ah receptor. Kind of series: Competitive binding assay of TCDD against [125I] radioligand for Ah receptor. Further details: species or system C57BL/6J mice. The method, then: C57BL/6J mice were purchased from The Jackson Laboratory, Bar Harbor, Me., and bred in our laboratory. See generally A. Poland et al., 261 J. Biol. Chem. 6352-65 (May 15, 1986) (not prior art). One-hundred adult male and female mice were killed by cervical dislocation, their livers removed, rinsed with ice cold KCl (150 mM), homogenized in 9 vol of MSSENG buffer, and centrifuged at 10,000 xg for 20 min at 4° C. The post-mitochondrial supernatant was carefully removed to avoid contamination by the surface lipid layer, and subjected to centrifugation at 105,000 x g. The supernatant (approx. 10 mg protein/ml) was separated from surface lipids and the microsomal pellet, and stored at -80° C. until processed further.
The frozen cytosolic fraction was thawed, and placed in an ice bath with slow stirring. A saturated solution of ammonium sulfate in MEN buffer was added to the cytosolic preparation, to a final concentration of 40%, over a period of 30 min, and stirred for an additional 30 min. The solution was centrifuged at 10,000 x g for 20 min, the supernatant fraction removed, slowly brought to an ammonium sulfate concentration of 55%, stirred for an additional 30 min, centrifuged at 10,000xg, and the supernatant discarded. The 40-55% ammonium sulfate precipitate was resuspended in 55% ammonium sulfate in MN, and aliquots equivalent to 0.5 g wet weight of liver (15 mg protein) were placed in 12×75 mm borosilicate tubes (VWR Scientific, San Francisco, Calif.), and spun at 5000xg. […]
The assay was terminated by the addition of a 0.5 ml of suspension of charcoal/gelatin (3%/0.3%) in MN buffer with vigorous stirring on a vortex mixer for 3 sec., and incubated for 10 min at 4° C. […] A one ml aliquot of the supernatant fraction of each tube was transferred to 12×75 […] polypropylene tubes (VWR Scientific, San Francisco, CA), and the Ah bound radioligand quantified in a MINAXI Series-5000 gamma scintillation counter (United Technologies/Packard Instrument Co., Downer Grove, Ill.). […]

`Brc1cc2c(cc1Br)Oc1cc([125I])ccc1O2` [radioligand, [^125 I]-2-iodo-7,8-dibromo-dibenzo-p-dioxin]: on Ah receptor [1], the “deviation in the quality control parameters compared to freshly prepared radioligand” value is reported as “no significant deviation”.

Take `Clc1cc2c(cc1Cl)Oc1cc(Cl)c(Cl)cc1O2` [TCDD, 2,3,7,8-tetrachloro-dibenzo-p-dioxin]: the “minimal detectable amount of TCDD” value is listed as 3.2 pg on Ah receptor [2] (1 ml assay) and 0.8 pg at Ah receptor [2] (total assay volume reduced to 0.25 ml). For the same molecule, on Ah receptor [2] (1 ml assay, statistical analysis of standard curve of specifically bound radioligand v. log concentration of competing TCDD), the “minimal detectable concentration of TCDD” value is on record as 10 pM.
